Numbering of substitutions follows the chain as printed. Where “and” joins values, the source holds several entries; their conditions need not be identical. Equal entries are not always repeated.
Tests used:
Format in all cases: cell-based
[1] = target: T1, Human K2P13.1 THIK-1 (WT) (Homo sapiens, UniProt Q9HB14); test: Macroscopic inside-out excised patch recordings from Xenopus oocytes expressing WT THIK-1; compounds applied to the intracellular side; conditions: for extent of activation by oleoyl-CoA: 5 µM oleoyl-CoA; for Fold activation: 5.0 µM oleoyl-CoA
T1 construct: expressed in transfected cells; host or cells: Xenopus oocytes (mRNA injection)
T1 sequence (Q9HB14 1-408): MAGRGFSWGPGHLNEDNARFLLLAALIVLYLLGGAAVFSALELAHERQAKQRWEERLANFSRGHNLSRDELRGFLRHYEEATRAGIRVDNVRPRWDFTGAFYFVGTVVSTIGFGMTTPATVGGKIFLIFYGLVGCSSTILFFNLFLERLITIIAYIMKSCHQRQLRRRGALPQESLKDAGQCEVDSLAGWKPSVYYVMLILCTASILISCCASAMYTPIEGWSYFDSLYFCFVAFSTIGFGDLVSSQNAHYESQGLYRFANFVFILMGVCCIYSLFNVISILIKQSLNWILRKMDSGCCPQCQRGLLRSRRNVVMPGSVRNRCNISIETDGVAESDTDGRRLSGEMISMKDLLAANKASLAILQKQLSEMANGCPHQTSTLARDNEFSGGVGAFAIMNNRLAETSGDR
From the text: (§1) Human K2P13.1 THIK-1 (GenBank accession number: NM_022054) and human K2P12.1 THIK-2 (NM_022055.1) were used in this study. For functional expression studies, the respective K^+ channel subtype coding sequences were subcloned into the oocyte expression vector pSGEM or the dual-purpose expression vector pFAW[41] and verified by sequencing. All mutant channels were obtained by site-directed mutagenesis and verified by sequencing. To increase surface expression and macroscopic currents, measurements of THIK-2 channels used a mutated ER retention motif, (R11A R12A R14A R15A R16A; THIK-2*)[20]. Vector DNA was linearized with NheI or MluI, and mRNA was synthesized in vitro using the SP6 or T7 AmpliCap Max High Yield Message Maker Kit (Cellscript, USA) or HiScribe T7 ARCA mRNA Kit (New England Biolabs).
(§2) Two-electrode voltage–clamp (TEVC) studies were performed in Xenopus oocytes. All animal use conformed to the Guide for the Care and Use of Laboratory Animals (NIH Publication 85–23), and all experiments using Xenopus toads were approved by the local ethics panels. Oocytes were stored at 17 °C in ND96 recording solution composed of (in mM): 96 NaCl, 2 KCl, 1.8 CaCl2, 1 MgCl2, 5 HEPES (pH 7.5 adjusted with NaOH and HCl), supplemented with Na-pyruvate (275 mg L^–1), theophylline (90 mg L^–1) and gentamicin (50 mg L^–1). Oocytes were injected with 1 ng mRNA for WT or mutant channels, and were incubated for 24–48 h at 17 °C. Two-electrode voltage clamp recordings were then performed as previously described[42],[43]. For macroscopic patch–clamp measurements, oocytes were obtained as described above incubated at 17 °C in a solution containing (mM): 54 NaCl, 30 KCl, 2.4 NaHCO3, 0.82 MgSO4 ×7 H2O, 0.41 CaCl2, 0.33 Ca(NO3)2 ×4 H2O and 7.5 TRIS (pH 7.4 adjusted with NaOH and HCl) for 1–4 days before use. Excised patch recordings in inside-out configuration conditions were performed at room temperature. Patch pipettes were made from thick-walled borosilicate glass GB 200TF-8P (Science Products), had resistances of 0.2–0.5 MΩ (tip diameter, 10–25 µm) and filled with a pipette solution (in mM): 120 KCl, 10 HEPES and 3.6 CaCl2 (pH 7.4 adjusted with KOH and HCl). Intracellular bath solutions and compounds were applied to the cytoplasmic side of excised patches for the various K^+ channels through a gravity flow multi-barrel pipette system. The intracellular solution had the following composition (in mM): 120 KCl, 10 HEPES, 2 EGTA and 1 pyrophosphate (pH adjusted with KOH and HCl). Currents were recorded with an EPC10 amplifier (HEKA Electronics) and sampled at 10 kHz or higher, with filtering set to 3 kHz (–3 dB) or higher, as appropriate for sampling rate. For measurements of GPCR activation, whole-cell currents were recorded for THIK-1 in transiently transfected HEK-293 cells. Cells were stimulated by a ramp protocol between −100 and +60 mV (holding potential, −80 mV). The pipette solution was composed of (in mM): 140 KCl, 2 MgCl2, 1 CaCl2, 2.5 EGTA and 10 HEPES (pH 7.3 adjusted with KOH and HCl). The extracellular bath solution had the following composition (in mM): 135 NaCl, 5 KCl, 2 MgCl2, 2 CaCl2, 10 glucose and 10 HEPES pH (pH 7.3 adjusted with NaOH and HCl). Oxotremorine M (Oxo-M) was added to extracellular bath solution to obtain the final concentration. Single-channel currents were recorded with an Axopatch 200B amplifier through a Digidata 1440A digitizer (Molecular Devices). Data were filtered at 2 kHz and recorded at a 200-kHz sampling rate with the program Clampex (Molecular Devices). Pipette solution and bath solution for cell-attached recordings contained (in mM): 140 KCl, 2 MgCl2, 1 CaCl2 and 10 HEPES (pH 7.4 adjusted with KOH and HCl). For inside-out recordings, the bath solution contained (in mM): 140 KCl, 2 MgCl2, 1 CaCl2 and 10 HEPES (pH 7.2 adjusted with KOH and HCl). All experiments were conducted at room temperature. […]

[2] = target: T2, THIK-1 R92A (Homo sapiens, UniProt Q9HB14, R92A); test: Inside-out excised patch recordings, oocytes, THIK-1 R92A mutant (lipid activation); conditions: THIK-1 R92A
T2 construct: expressed in transfected cells; host or cells: Xenopus oocytes (mRNA injection)
T2 sequence (Q9HB14 1-408 R92A): T1 sequence (Q9HB14 1-408) with R92A
From the text: as §1, §2

[3] = target: T3, THIK-1 F262A (Homo sapiens, UniProt Q9HB14, F262A); test: Inside-out excised patch recordings, oocytes, THIK-1 F262A mutant (lipid activation); conditions: THIK-1 F262A
T3 construct: expressed in transfected cells; host or cells: Xenopus oocytes (mRNA injection)
T3 sequence (Q9HB14 1-408 F262A): T1 sequence (Q9HB14 1-408) with F262A
From the text: as §1, §2

extent of activation by oleoyl-CoA ([1]; WT): 14 ± 1 fold
extent of activation by oleoyl-CoA ([1]; WT preinhibited with halothane (15.2 mM)): 8 ± 2 fold
Fold activation ([1]; WT, Halothane pre-inhibited (15.2 mM halothane), mean): 8.43
Fold activation ([1]; WT, absence of halothane, mean): 13.60
Fold activation with 5.0 µM oleoyl-CoA ([1]; THIK-1 WT, mean): 13.60
Fold activation with 5.0 µM oleoyl-CoA ([2]; mean): 19.67
Fold activation with 5.0 µM oleoyl-CoA ([3]; mean): 17.39
Structure (SMILES): CCCCCCCC/C=C\CCCCCCCC(=O)SCCNC(=O)CCNC(=O)[C@H](O)C(C)(C)COP(=O)(O)OP(=O)(O)OC[C@H]1O[C@@H](n2cnc3c(N)ncnc32)[C@H](O)[C@@H]1OP(=O)(O)O [oleoyl-CoA]
Fold activation ([1]; WT, Halothane pre-inhibited (15.2 mM halothane), individual recordings): 8.238 and 0.783 and 13.259 and 5.975 and 16.259 and 6.147 and 12.474 and 4.311
Fold activation with 5.0 µM oleoyl-CoA ([2]; individual recordings): 19.660 and 15.940 and 13.100 and 29.730 and 21.570 and 18.010
Fold activation with 5.0 µM oleoyl-CoA ([3]; individual recordings): 16.700 and 14.500 and 16.910 and 15.530 and 18.460 and 22.210

— paper PMC12263422, “Cryo-EM structure of the human THIK-1 K2P K^+ channel reveals a lower Y gate regulated by lipids and anesthetics” (Nature Structural & Molecular Biology, 2025)
